ChEMBL document CHEMBL1201862, “PubChem BioAssay data set” (2004)
The source made the active and inactive calls.

Tests used:
[1] = molecular target: E3 ubiquitin-protein ligase Mdm2 (Homo sapiens, UniProt Q00987); experiment: MDM2-luc reporter signal enhancers, multi-concentration potency testing, MDM2 ubiquitin-protein ligase inhibitor program, whole-cell format, luminescence detection, 384-well microplate (AID 1394); format: functional;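 also: MDM2 E3 inhibitors raise luminescence so EC50 is for signal enhancement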
E3 ubiquitin-protein ligase Mdm2, sequence (Q00987 whole entry): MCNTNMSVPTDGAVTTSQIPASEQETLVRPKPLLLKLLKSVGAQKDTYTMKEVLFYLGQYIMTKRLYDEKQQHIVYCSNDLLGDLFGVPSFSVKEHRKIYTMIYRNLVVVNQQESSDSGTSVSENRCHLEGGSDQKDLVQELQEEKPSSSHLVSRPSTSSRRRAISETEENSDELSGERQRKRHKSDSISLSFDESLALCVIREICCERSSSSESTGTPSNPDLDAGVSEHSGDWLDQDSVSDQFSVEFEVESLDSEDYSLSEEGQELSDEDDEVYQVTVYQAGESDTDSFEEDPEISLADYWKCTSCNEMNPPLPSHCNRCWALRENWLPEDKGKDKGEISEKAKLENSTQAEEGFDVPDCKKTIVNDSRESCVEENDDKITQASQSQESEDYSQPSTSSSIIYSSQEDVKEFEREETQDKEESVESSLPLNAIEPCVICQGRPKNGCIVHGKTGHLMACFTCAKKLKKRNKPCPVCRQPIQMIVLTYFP

[2] = molecular target: NAD-dependent protein deacylase sirtuin-5, mitochondrial (Homo sapiens, UniProt Q9NXA8); experiment: blockers of sirtuin-5 peptide desuccinylation – biochemical, fluorescence imaging, cherry-pick, set 6, dose response (AID 720597)
NAD-dependent protein deacylase sirtuin-5, mitochondrial, sequence (Q9NXA8 whole entry): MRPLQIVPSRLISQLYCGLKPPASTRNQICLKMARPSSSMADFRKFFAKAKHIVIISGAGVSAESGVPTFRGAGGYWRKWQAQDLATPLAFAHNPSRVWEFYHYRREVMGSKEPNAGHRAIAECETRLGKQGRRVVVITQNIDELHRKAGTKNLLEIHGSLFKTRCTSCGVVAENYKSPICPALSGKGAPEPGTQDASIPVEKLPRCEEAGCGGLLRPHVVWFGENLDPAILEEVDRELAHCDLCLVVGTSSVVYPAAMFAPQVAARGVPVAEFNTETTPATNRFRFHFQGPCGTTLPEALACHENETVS

[3] = molecular target: T1, Low molecular weight phosphotyrosine protein phosphatase (Homo sapiens, UniProt P24666); experiment: inhibition of LMPTP-A enzymatic activity – biochemical, OMFP substrate, fluorescence intensity, set 2, dose response (AID 743307); format: functional
T1 sequence (P24666 whole entry): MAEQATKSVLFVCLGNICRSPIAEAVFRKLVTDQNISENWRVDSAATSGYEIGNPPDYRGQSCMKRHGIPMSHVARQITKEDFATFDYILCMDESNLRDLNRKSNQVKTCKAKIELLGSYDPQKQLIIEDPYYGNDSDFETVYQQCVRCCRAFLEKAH

[4] = molecular target: T1, Low molecular weight phosphotyrosine protein phosphatase; experiment: inhibition of human LMPTP enzyme activity – biochemical, absorbance, pNPP substrate, LMPTP-A isoform, set 2, orthogonal assay, dose response (AID 743308); format: functional
[5] = molecular target: Bifunctional protein GlmU (Mycobacterium tuberculosis, UniProt P9WMN3); experiment: Inhibitors of Mycobacterial Glucosamine-1-phosphate acetyl transferase (GlmU). Secondary screen.; parameters: species or system Mycobacterium tuberculosis H37Rv
Bifunctional protein GlmU, sequence (P9WMN3 whole entry, the tested form may be a part): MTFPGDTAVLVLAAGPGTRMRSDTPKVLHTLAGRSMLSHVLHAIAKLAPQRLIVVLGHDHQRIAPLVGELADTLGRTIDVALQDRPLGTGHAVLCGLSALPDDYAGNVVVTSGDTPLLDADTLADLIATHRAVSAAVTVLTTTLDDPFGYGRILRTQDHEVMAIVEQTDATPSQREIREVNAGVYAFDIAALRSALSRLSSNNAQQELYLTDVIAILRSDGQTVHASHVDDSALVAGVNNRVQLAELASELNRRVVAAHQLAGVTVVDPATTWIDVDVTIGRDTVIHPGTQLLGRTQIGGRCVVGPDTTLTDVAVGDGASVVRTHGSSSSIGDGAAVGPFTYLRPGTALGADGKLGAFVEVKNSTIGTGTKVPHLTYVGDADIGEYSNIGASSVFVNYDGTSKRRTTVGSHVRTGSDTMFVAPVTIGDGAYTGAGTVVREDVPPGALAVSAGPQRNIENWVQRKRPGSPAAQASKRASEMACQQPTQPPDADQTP

[6] = molecular target: T2, Carboxy-terminal domain RNA polymerase II polypeptide A small phosphatase 1 (Homo sapiens, UniProt Q9GZU7); experiment: CTDSP1 inhibitors, concentration-response, biochemical, absorbance readout, ultra-high-throughput screen actives (AID 540297); format: functional
T2 sequence (Q9GZU7 whole entry): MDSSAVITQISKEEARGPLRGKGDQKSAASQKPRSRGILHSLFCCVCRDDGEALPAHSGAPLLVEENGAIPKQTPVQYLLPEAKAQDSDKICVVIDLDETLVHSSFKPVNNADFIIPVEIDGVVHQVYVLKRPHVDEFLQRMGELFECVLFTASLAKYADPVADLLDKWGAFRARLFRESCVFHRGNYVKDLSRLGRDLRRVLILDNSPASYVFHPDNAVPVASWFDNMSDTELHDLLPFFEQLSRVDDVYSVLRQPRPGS

[7] = molecular target: Tyrosine-protein phosphatase non-receptor type 11 (Homo sapiens, UniProt Q06124); experiment: PTPN11 enzyme inhibitors – biochemical, selectivity assay for STEP inhibitor project, dose response (AID 602367); format: functional; conditions: read-out: IC50_Mean
Tyrosine-protein phosphatase non-receptor type 11, sequence (Q06124 whole entry): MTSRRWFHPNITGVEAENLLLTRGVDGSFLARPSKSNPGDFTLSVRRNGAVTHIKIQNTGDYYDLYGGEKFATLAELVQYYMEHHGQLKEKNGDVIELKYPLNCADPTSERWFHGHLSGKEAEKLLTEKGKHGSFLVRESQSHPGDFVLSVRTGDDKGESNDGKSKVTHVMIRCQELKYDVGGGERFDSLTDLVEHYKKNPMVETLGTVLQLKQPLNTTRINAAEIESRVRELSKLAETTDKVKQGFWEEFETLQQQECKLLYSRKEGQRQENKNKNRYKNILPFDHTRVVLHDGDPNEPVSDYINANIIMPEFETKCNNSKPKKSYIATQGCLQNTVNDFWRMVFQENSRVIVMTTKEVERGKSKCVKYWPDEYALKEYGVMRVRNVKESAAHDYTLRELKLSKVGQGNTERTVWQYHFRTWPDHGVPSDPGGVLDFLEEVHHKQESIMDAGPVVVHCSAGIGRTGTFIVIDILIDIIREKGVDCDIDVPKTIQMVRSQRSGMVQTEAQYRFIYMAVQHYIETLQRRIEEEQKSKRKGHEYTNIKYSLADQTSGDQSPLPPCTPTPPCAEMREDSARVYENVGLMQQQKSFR

[8] = molecular target: Tyrosine-protein phosphatase non-receptor type 5 (Homo sapiens, UniProt P54829); experiment: PTPN5 enzyme inhibition – biochemical, fluorescence intensity, uHTS hits, confirmation (AID 602372); format: functional; conditions: read-out: IC50_Mean
Tyrosine-protein phosphatase non-receptor type 5, sequence (P54829 whole entry): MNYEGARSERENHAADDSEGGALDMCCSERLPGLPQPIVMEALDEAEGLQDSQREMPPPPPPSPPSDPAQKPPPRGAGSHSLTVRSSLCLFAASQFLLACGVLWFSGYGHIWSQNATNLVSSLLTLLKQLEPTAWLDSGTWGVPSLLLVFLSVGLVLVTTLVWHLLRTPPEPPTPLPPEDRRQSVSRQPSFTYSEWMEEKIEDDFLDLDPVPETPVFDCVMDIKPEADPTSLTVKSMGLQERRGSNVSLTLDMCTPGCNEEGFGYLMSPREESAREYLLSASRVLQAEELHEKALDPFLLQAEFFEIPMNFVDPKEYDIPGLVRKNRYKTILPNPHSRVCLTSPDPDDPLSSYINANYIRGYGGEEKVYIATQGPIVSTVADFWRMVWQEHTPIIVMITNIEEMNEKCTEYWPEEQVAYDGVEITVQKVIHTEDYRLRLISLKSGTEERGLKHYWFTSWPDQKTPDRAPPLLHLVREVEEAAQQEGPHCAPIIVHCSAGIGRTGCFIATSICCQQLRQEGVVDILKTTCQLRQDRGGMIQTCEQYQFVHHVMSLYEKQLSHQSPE

[9] = molecular target: Dual specificity protein phosphatase 3 (Homo sapiens, UniProt P51452); experiment: VHR phosphatase inhibition, dose response, selectivity assay for STEP inhibitor project, biochemical (AID 602374); format: functional; conditions: read-out: IC50_Mean
Dual specificity protein phosphatase 3, sequence (P51452 whole entry): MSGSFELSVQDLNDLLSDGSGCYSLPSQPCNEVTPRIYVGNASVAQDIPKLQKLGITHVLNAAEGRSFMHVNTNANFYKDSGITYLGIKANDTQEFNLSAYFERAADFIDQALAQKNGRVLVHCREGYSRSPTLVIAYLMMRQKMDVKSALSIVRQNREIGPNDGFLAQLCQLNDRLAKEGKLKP

[10] = molecular target: T3, Tyrosine-protein phosphatase non-receptor type 22 (Homo sapiens, UniProt Q9Y2R2); experiment: lymphoid phosphatase LYP inhibitors – biochemical, selectivity assay for STEP inhibitor project, dose response (AID 624241); format: functional
T3 sequence (Q9Y2R2 whole entry): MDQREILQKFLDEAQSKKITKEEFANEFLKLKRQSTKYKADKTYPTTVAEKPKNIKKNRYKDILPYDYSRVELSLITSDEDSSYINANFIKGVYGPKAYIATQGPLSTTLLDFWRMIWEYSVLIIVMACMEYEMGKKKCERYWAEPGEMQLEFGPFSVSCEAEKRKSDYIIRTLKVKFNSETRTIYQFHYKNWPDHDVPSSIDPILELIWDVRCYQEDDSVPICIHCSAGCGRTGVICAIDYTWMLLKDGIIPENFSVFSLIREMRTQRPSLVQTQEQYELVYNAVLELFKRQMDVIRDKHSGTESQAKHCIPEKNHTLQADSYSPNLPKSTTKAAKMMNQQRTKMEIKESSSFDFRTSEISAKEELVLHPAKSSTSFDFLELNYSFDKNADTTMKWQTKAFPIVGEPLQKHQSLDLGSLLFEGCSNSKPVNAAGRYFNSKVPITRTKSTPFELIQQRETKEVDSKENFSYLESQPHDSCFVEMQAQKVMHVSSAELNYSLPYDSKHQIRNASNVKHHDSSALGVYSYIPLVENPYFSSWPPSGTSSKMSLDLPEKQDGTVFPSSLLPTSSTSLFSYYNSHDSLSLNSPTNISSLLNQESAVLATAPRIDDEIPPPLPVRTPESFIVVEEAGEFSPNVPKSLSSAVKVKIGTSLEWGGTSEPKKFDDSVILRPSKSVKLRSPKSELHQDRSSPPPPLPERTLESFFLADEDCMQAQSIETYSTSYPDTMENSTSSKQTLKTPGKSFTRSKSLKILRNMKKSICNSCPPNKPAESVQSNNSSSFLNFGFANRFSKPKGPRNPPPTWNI

Protein Tat = Protein Tat (Human immunodeficiency virus type 1 group M subtype B (isolate HXB2)(HIV-1), UniProt P04608); format: functional;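 also: tat binding to TAR RNA read out by fluorescence polarization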
Protein Tat, sequence (P04608 whole entry): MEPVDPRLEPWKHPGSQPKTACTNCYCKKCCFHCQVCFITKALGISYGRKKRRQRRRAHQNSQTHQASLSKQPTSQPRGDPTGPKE

[11] = NIH-3T3 fibroblast cytotoxicity, dose response, cytotoxicity control, cell-based, fluorescence, Alamar Blue, secondary assay (AID 2327); format: functional;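 also: NIH-3T3 mouse fibroblasts cultured with fluconazole at 8 µg/mL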
[12] = fluconazole-exposed Candida albicans growth modulators – fluorescence, retest, confirmation (AID 2467); format: functional, cell-based
[13] = molecular target: T4, Serine/threonine-protein phosphatase (Candida dubliniensis (strain CD36 / CBS 7987 / NCPF 3949 / NRRLY-17841) (Yeast), UniProt B9W6M3); experiment: blockers of CaCl2-induced CDRE-lacZ signaling – S. cerevisiae, luminescence, secondary, dose response (AID 2388); format: functional, cell-based;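 also: yeast reporter cells carrying a calcineurin-responsive lacZ construct stimulated with calcium chloride; luminescent beta-galactosidase reporter signal in whole cells rather than isolated phosphatase activity; potency for inhibition where a drop in reporter signal means calcineurin blockade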
T4 sequence (B9W6M3 whole entry): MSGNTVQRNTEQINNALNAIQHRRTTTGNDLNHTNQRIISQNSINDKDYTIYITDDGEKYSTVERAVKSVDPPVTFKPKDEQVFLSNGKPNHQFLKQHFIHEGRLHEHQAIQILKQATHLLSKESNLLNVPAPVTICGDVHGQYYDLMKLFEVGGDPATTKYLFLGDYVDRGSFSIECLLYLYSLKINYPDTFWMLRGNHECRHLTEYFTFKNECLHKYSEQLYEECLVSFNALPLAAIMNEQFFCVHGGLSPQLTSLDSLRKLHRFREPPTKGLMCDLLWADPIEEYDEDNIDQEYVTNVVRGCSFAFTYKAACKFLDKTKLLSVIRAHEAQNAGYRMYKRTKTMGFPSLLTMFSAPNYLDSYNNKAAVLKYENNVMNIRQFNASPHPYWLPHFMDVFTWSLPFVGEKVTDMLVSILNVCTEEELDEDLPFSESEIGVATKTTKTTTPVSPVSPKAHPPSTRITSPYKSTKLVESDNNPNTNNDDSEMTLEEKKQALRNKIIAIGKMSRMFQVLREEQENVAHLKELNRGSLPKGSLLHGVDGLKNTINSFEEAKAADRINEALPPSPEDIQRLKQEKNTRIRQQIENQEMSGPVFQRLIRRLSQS

[14] = HEK-293T viability loss after treatment – luminescence, T-cell screen hits, cytotoxicity control for TCR NF-kB inhibitor project, dose response (AID 489026); format: functional, cell-based;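 also: cells exposed to compound about 14 hours before the viability readout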
INS1 = experiment: INS-1E survival protection against cytokine death – cell-based, luminescence, retest, dose response (AID 449756); format: functional; conditions: Rattus norvegicus, INS1;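 also: cell death triggered by IL-1 beta plus TNF-alpha plus IFN-gamma mixture; protective hits raise ATP signal compared with cytokine alone wells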
[15] = molecular target: ATP-dependent molecular chaperone HSP82 (Candida albicans (strain WO-1) (Yeast), UniProt C4YTQ8); experiment: steroid-induced GRE reporter decrease in yeast – S. cerevisiae, luminescence, Hsp90 inhibitor project, dose response (AID 2400); format: functional, cell-based;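 also: beta-galactosidase luminescence from glucocorticoid response element reporter as proxy for Hsp90 function; inhibitor potency where signal loss means Hsp90 inhibition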
ATP-dependent molecular chaperone HSP82, sequence (C4YTQ8 whole entry): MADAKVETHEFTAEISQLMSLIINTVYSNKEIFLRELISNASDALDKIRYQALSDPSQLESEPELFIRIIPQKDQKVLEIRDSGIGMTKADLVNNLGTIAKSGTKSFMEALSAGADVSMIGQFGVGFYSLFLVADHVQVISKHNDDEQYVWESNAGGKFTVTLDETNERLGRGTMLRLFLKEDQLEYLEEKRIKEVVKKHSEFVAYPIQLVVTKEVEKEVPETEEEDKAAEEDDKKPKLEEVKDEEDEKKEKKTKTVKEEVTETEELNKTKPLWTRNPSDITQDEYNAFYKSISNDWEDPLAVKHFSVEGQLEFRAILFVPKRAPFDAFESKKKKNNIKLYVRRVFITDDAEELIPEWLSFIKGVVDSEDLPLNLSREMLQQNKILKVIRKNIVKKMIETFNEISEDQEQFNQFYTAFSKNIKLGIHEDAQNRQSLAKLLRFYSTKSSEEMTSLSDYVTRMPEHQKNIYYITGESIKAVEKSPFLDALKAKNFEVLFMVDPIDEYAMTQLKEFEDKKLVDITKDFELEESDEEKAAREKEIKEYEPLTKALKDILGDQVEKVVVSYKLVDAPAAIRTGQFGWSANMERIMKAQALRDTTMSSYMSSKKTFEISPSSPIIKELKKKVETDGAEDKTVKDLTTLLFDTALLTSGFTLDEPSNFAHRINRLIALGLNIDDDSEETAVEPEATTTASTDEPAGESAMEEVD

[16] = reduction of Shn3 3'UTR-driven luciferase in osteoblasts – cell-based, Clone20 osteoblasts, firefly luciferase, cherry-picked, dose response (AID 624132); format: functional;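 also: firefly luciferase luminescence from reporter carrying the Shn3 3'UTR in osteoblasts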
[17] = loss of viability in HepG2 cells – cell-based, CellTiter-Glo, cherry-picked, cytotoxicity control for Shn3 inhibitor project, dose response (AID 624134); format: functional
[18] = non-specific 3'UTR reporter inhibition in Clone20-Shn3RL – cell-based, Renilla luciferase, cherry-picked, counter-screen for Shn3 inhibitor project, dose response (AID 624133); format: functional
Galanin receptor type 3 = Galanin receptor type 3 (Homo sapiens, UniProt O60755); experiment: Fluorescence-based cell-based primary high throughput dose response assay to identify antagonists of the Galanin Receptor 3 (GalR3).; format: functional
Galanin receptor type 3, sequence (O60755 whole entry): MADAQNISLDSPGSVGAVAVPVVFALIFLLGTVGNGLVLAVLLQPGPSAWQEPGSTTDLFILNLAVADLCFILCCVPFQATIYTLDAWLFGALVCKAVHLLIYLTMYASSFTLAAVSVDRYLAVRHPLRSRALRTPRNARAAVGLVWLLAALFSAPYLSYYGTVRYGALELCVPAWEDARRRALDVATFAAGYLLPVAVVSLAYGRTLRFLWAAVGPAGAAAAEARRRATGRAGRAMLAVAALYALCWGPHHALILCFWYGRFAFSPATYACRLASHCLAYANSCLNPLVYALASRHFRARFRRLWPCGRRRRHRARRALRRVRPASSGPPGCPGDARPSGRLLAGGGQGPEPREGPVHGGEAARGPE

cells [19] = format: functional, cell-based; conditions: HEK-CNG
[20] = molecular target: COUP transcription factor 2 (Homo sapiens, UniProt P24468); experiment: Luminescence-based cell-based high throughput dose response assay to identify inhibitors of COUP-TFII (NR2F2).; format: functional;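 also: HEK293 cells transiently cotransfected with COUP-TFII expression vector and reporter; luciferase reporter luminescence driven by COUP-TFII from the pX2-168 reporter plasmid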
COUP transcription factor 2, sequence (P24468 whole entry): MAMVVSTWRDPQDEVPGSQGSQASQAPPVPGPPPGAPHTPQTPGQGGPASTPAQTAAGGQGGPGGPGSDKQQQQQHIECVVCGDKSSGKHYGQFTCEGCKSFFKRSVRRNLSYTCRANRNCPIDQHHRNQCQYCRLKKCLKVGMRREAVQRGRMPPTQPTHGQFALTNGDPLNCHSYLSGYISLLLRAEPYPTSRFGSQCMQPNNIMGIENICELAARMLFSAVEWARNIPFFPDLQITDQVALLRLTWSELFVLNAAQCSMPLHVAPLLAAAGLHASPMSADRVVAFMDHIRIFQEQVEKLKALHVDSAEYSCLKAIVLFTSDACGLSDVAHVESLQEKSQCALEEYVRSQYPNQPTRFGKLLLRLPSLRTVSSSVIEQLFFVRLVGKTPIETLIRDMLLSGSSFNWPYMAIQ

[21] = inhibitors of non-replicating M. tuberculosis, dose response, luciferase, dry powder (AID 651619); format: functional; conditions: Mycobacterium tuberculosis
[22] = inhibitors of non-replicating M. tuberculosis, dose response, luciferase, dry powder (AID 651620); format: functional; conditions: Mycobacterium tuberculosis
[23] = viability inhibitors of stage V gametocytes – luminescence, dose response (AID 1117278); format: functional, cell-based;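 also: gametocytes exposed to compound for 24 hours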
[24] = viability loss in human Jurkat cells – cell-based, luminescence, cytotoxicity control for P. falciparum gametocyte viability project, dose response (AID 1117277); format: functional;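 also: potency reflects loss of cellular ATP meaning fewer viable cells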
[25] = viability loss in HepG2 liver cells – cell-based, ATP luminescence, cherry-pick, set 6, cytotoxicity control, dose response (AID 1053125); format: functional
cells [26] = conditions: HEK293

COc1ccc(-c2nsc(SCC(=O)Nc3ccc4c(c3)OCO4)n2)cc1
EC50 [1]: 0.19 µM (not active)

Cc1noc(C)c1NC(=O)Nc1ccc2c(c1)C(=O)N([C@H](C)CO)C[C@H](C)[C@@H](CN(C)Cc1ccc(C(F)(F)F)cc1)OCCCC[C@@H](C)O2
AC50 [2]: > 30 µM (inactive)

c1ccc(-c2cc(NCCN3CCOCC3)c3ccccc3n2)cc1
IC50 [3]: 2.13 µM (active)
IC50 [4]: 3.28 µM (active)

Cc1c(C)n(C(=O)CSc2nc3ccccc3[nH]2)c2ccccc12
IC50 [5]: 38.2 µM (active)
IC50 [6]: 3.37 µM (active)
IC50 [7]: 0.603 µM (active)
IC50 [8]: 9.91 µM (active)
IC50 [9]: 1.81 µM (active)
IC50 [10]: 8.33 µM (active)
IC50 (Protein Tat): > 100 µM (active)

CC(Nc1ncnc2ccccc12)c1ccccc1 (centres undefined)
EC50 [11]: > 160 µM (inactive)
EC50 [12]: 0.404 µM (active)
EC50 [13]: > 180 µM (inactive)
IC50 [14]: > 80 µM (inactive)
AC50 (INS1): 1.98 µM (active)
EC50 [15]: > 160 µM (inactive)
AC50 [16]: 0.355 µM (active)
AC50 [17]: 1.21 µM (active)
AC50 [18]: 1.14 µM (active)
IC50 (Galanin receptor type 3): 0.128 µM (active)
EC50 (cells [19]): > 29.9 µM (inactive)
IC50 [20]: 2.41 µM (active)

[N-]=[N+]=NCCOCCNC(=O)CCCOc1ccc(C[S+]([O-])c2nnc(-c3ccc(Cl)cc3)o2)nc1 (centres undefined)
IC90 [21]: 8 µM (active)
IC90 [22]: 8 µM (active)

O=C(Cn1cnc2ccccc2c1=O)Nc1ccc(S(=O)(=O)N2CCOCC2)cc1
IC50 [23]: > 109 µM (inactive)
IC50 [24]: > 83.3 µM (inactive)

Cc1c(C(=O)NCc2cccc(C(F)(F)F)c2)sc(=O)n1Cc1ccc(C(=O)N(C)C)cc1
AC50 [25]: > 52 µM (inactive)
AC50 (cells [26]): > 52 µM (inactive)
